According to patent US20160067269A1, “Miltefosin Or Perifosin For Use In The Treatment of IBD” (ACADEMISCH MEDISCH CENTRUM, priority 2013, published 2016):

Tests used:
[1] = system: SCID mice (C.B-17/lcrHsd-Prkcd); assay: experimental colitis transfer model (CD45RBHigh cells injected into SCID mice); format: in vivo, mouse; conditions: 50 mg/kg oral gavage twice a week
Procedure: To study the application of miltefosine as an anti-inflammatory drug, miltefosine was tested in the experimental colitis transfer model. In this model SCID mice, lacking T and B lymphocytes, are injected with only effector T lymphocytes (CD4^+CD45RB^High) omitting regulatory T lymphocytes (CD4^+CD45RB^Low). The absence of the letter causes, over a period of two months, the development of chronic inflammation of the colon.
Mouse CD4 positive lymphocytes were isolated from the spleen of normal mice (Balb/c OlaHsd). The spleen was removed, forced through a cell strainer to obtain a single cell suspension. Erythrocytes were lysed by adding water, quickly followed by PBS. The remaining cells were enriched in CD4 positive cells by negative depletion using magnetic beads specific for B cell (anti-B220), macrophages (anti-Mac-1) and cytotoxic T lymphocytes (anti-CD8). The remaining cell were washed and labeled for CD4 (CD4-PerCP-Cy5) and CD45RB (CD45RB-FITC). Using a FACS sorter the cell were separated in CD4 cells expressing low levels of CD45RB (CD45RB^Low) and high levels of CD45RB (CD45RB^High).
To induce colitis, SCID mice (C.B-17/lcrHsd-Prkcd) were injected with 5·10^5 CD45RB^High cells.
The mice were divided in three groups, each group containing 10 mice. […] Group two and three both received only CD45RB^High cells and developed colitis. Only group three received miltefosine (50 mg/kg) via oral gavage. Treatment started two weeks after the start of the experiment and was given twice a week until the end of the experiment. The mice were weighted three times a week during the entire duration of the experiment.
Part of the colon of each mouse was embedded in paraffin, cut and stained with hematoxylin and eosin (HE). The pathology score takes in account epithelial cell hyperplasia, leukocyte infiltrations, loss of goblet cells, ulceration and cryptabscesses.

human patients = conditions: high dosages; cited from earlier work
[2] = 50 mg/kg per treatment; reported in literature; cited from earlier work

weight loss in two days time ([1]; after day 42): ten | average weight at the end of the experiment ([1]; between the groups): does not differ significantly
Structure (SMILES): CCCCCCCCCCCCCCCCOP(=O)([O-])OCC[N+](C)(C)C [miltefosine, hexadecyl phosphocholine]
average weight of the group versus negative control group ([1]; till day 42): corresponded with the negative control group | side effects in human patients (human patients): nausea and vomiting | effect on bodyweight [2]: can affect bodyweight negatively
